Data reported in US20240139211A1, “METHODS AND COMPOSITIONS FOR TREATING AMYOTROPHIC LATERAL SCLEROSIS” (Amylyx Pharmaceuticals, Inc., priority 2022, published 2024).
Where “and” joins values, the source holds several entries; their conditions need not be identical. Identical values can stand only once.

Experiments:
hrCYP3A4 = hrCYP3A4 (Homo sapiens, UniProt P08684); experiment: CYP reaction phenotyping with hrCYP3A4 (% remaining); format: in vitro ADME; conditions: hrCYP3A4 20 pmol CYP/mL, 5 μM TA, PB and TUDCA co-incubated
[1] = Rat drug-drug interaction study TDF + AMX0035: urine recovery; format: in vivo; conditions: Days 1 and 5
Experimental: Total urine recovery data for Tenofovir, TDF, and PB was calculated for the 24 hour collection period on Days 1 and 5. […] The reported urine recovery data included amount recovered (ng) and percent recovered (%) for […]. Individual and mean Tenofovir, TDF, and PB urine recovery data were presented with SD, reported to three significant figures, and CV %, reported to one decimal place.

[2] = Relevant plasma concentrations for in vitro transporter assessment; format: in vivo
[3] = tested on: CYPs in human liver microsomes (HLM); experiment: CYP reaction phenotyping in HLM with chemical inhibitors (% remaining)
P-gp and BCRP = P-gp and BCRP substrate assessment in C2BBe1 monolayers
Experimental: The P-gp and BCRP substrate assessment was conducted in C2BBe1 cell monolayers. […] LY was co-dosed with each dosing solution at a nominal concentration of 200 μM.
The cell culture medium was aspirated, and the cell monolayers were rinsed once with HBSSg_7.4. […] For receiver samples, aliquots (300 μL) were taken at pre-selected time points. […] For donor samples, aliquots (50 μL) were taken at pre-selected time points without replacement.

[4] = Rat drug-drug interaction study TDF + AMX0035: plasma pharmacokinetics; conditions: for Plasma Concentration of analyte at 0.50 hr / Plasma Concentration of analyte at 1.0 hr / Plasma Concentration of analyte at 2.0 hr / Plasma Concentration of analyte at 4.0 hr / Plasma Concentration of analyte at 8.0 hr / Plasma Concentration of analyte at 24 hr / Plasma Concentration of analyte at […] / AUC0-24 / AUClast / Cmax / Tlast / Tmax: male Sprague Dawley rats; for AUC0-24 / AUClast / Cmax / Tlast / Tmax: oral, plasma
[5] = 1.62 μM TUDCA (Solution 3), C2BBe1 cells, average
[6] = 1.62 μM TUDCA (Solution 3), C2BBe1 cells, single replicates
[7] = 16.2 μM TUDCA (Solution 2), C2BBe1 cells, average
[8] = 16.2 μM TUDCA (Solution 2), C2BBe1 cells, single replicates
[9] = […] TUDCA (Solution 1), C2BBe1 cells, average
[10] = […] TUDCA (Solution 4), C2BBe1 cells, average
[11] = Day 1, TDF only 25 mg/kg oral, individual animals, BLQ = <50 ng/mL
[12] = Day 1, TDF only 25 mg/kg oral, mean of 3, BLQ set to zero
[13] = Day 5, AMX0035 + TDF 840/25 mg/kg oral, individual animals, BLQ = <50 ng/mL
[14] = Day 5, AMX0035 + TDF 840/25 mg/kg oral, mean of 3, BLQ set to zero
[15] = Day 1, TDF only 25 mg/kg, individual animals
[16] = Day 1, TDF only 25 mg/kg, mean, N=3
[17] = Day 5, AMX0035 + TDF 840/25 mg/kg, individual animals
[18] = Day 5, AMX0035 + TDF 840/25 mg/kg, mean, N=3

Sequence of hrCYP3A4 (P08684 whole entry): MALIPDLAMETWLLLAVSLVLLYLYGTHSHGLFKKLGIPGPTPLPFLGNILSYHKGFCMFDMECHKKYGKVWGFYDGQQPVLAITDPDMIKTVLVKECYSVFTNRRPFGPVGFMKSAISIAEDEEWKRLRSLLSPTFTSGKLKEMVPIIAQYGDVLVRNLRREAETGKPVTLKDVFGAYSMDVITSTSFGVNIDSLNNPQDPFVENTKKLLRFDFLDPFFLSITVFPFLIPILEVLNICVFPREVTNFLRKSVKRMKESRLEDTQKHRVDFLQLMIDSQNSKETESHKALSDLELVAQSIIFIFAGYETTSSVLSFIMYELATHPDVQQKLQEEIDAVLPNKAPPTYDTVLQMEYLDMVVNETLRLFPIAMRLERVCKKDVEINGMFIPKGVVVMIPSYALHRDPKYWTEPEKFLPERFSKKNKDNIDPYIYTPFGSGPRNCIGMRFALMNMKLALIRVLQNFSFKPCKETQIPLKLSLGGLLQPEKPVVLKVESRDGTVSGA

In the case of tauroursodeoxycholic acid [TUDCA], the “% Remaining of TA” value (hrCYP3A4; 0 min) is reported as 100%, the “% Remaining of TA” value (hrCYP3A4; 5 min) is reported as 97.1% and the “% Remaining of TA” value (hrCYP3A4; 10 min) is reported as 92.1%. For the same substance, the “% Remaining of TA” value (hrCYP3A4; 20 min) was 91.4%, the “% Remaining of TA” value (hrCYP3A4; 30 min) was 90.9% and the “% Remaining of TA” value (hrCYP3A4; 60 min) was 91.1%. For the same substance, the Detection in urine [1] was “not detected in any urine samples”, the “Plasma Cmax (total [I]1)” value ([2]; component of AMX0035, highest oral dose TUDCA 1000 mg, PB 3000 mg) was 108 µM and the “Unbound [I]m, max” value ([2]; projected unbound Iin, max) was 3.48 µM. The “Unbound Cmax (Unbound [I]1)” value ([2]; projected, from total Cmax and plasma protein binding) was 1.62 µM, the “Metabolism by the major CYPs in HLM” value [3] was “neither PB nor TUDCA is metabolized” and the “% remaining of TA in HLM” value ([3]; +NADPH +ketoconazole (CYP3A), 10 min) was 110%. The “% remaining of TA in HLM” value ([3]; +NADPH +ketoconazole (CYP3A), 20 min) was 108%, the “% remaining of TA in HLM” value ([3]; +NADPH +ketoconazole (CYP3A), 30 min) was 94.1% and the “% remaining of TA in HLM” value ([3]; Maximum Metabolism-1: +NADPH −inhibitor, pre-incubated, 5 min) was 112%. The “% remaining of TA in HLM” value ([3]; Maximum Metabolism-1: +NADPH −inhibitor, pre-incubated, 10 min) was 126%, the “% remaining of TA in HLM” value ([3]; Maximum Metabolism-1: +NADPH −inhibitor, pre-incubated, 20 min) was 123% and the “% remaining of TA in HLM” value ([3]; Maximum Metabolism-1: +NADPH −inhibitor, pre-incubated, 30 min) was 121%. For the same substance, the “% remaining of TA in HLM” value ([3]; Maximum Metabolism-1: +NADPH −inhibitor, pre-incubated, 60 min) was 121%, the “% remaining of TA in HLM” value ([3]; Maximum Metabolism-2: +NADPH −inhibitor, 5 min) was 103% and the “% remaining of TA in HLM” value ([3]; Maximum Metabolism-2: +NADPH −inhibitor, 10 min) was 103%. The “% remaining of TA in HLM” value ([3]; Maximum Metabolism-2: +NADPH −inhibitor, 20 min) was 103%, the “% remaining of TA in HLM” value ([3]; Maximum Metabolism-2: +NADPH −inhibitor, 30 min) was 102% and the “% remaining of TA in HLM” value ([3]; Maximum Metabolism-2: +NADPH −inhibitor, 60 min) was 96.9%. For the same substance, the “% remaining of TA in HLM” value ([3]; Negative Control-1: −NADPH −inhibitor, pre-incubated, 5 min) was 117%, the “% remaining of TA in HLM” value ([3]; Negative Control-1: −NADPH −inhibitor, pre-incubated, 10 min) was 129% and the “% remaining of TA in HLM” value ([3]; Negative Control-1: −NADPH −inhibitor, pre-incubated, 20 min) was 119%. The “% remaining of TA in HLM” value ([3]; Negative Control-1: −NADPH −inhibitor, pre-incubated, 30 min) was 130%, the “% remaining of TA in HLM” value ([3]; Negative Control-1: −NADPH −inhibitor, pre-incubated, 60 min) was 132% and the “% remaining of TA in HLM” value ([3]; Negative Control-2: −NADPH −inhibitor, 5 min) was 104%. The “% remaining of TA in HLM” value ([3]; Negative Control-2: −NADPH −inhibitor, 10 min) was 104%, the “% remaining of TA in HLM” value ([3]; Negative Control-2: −NADPH −inhibitor, 20 min) was 105% and the “% remaining of TA in HLM” value ([3]; Negative Control-2: −NADPH −inhibitor, 30 min) was 106%. For the same substance, the “% remaining of TA in HLM” value ([3]; Negative Control-2: −NADPH −inhibitor, 60 min) was 106%, the “Papp AP-to-BL” value (P-gp and BCRP; [5]) was 8.32 10^−6 cm/s and the “Papp BL-to-AP” value (P-gp and BCRP; [5]) was 1.91 10^−6 cm/s. The “Papp AP-to-BL” value (P-gp and BCRP; [6]) was 9.59 10^−6 cm/s and 7.25 10^−6 cm/s and 8.12 10^−6 cm/s, the “Papp BL-to-AP” value (P-gp and BCRP; [6]) was 1.75 10^−6 cm/s and 1.84 10^−6 cm/s and the “Papp AP-to-BL” value (P-gp and BCRP; [7]) was 2.00 10^−6 cm/s. For the same substance, the “Papp BL-to-AP” value (P-gp and BCRP; [7]) was 0.610 10^−6 cm/s, the “Papp AP-to-BL” value (P-gp and BCRP; [8]) was 1.19 10^−6 cm/s and 2.71 10^−6 cm/s and 2.08 10^−6 cm/s and the “Papp BL-to-AP” value (P-gp and BCRP; [8]) was 0.553 10^−6 cm/s and 0.714 10^−6 cm/s and 0.561 10^−6 cm/s. The “Papp BL-to-AP” value (P-gp and BCRP; Caco-2) was 2.15 10^−6 cm/s, the “Papp AP-to-BL” value (P-gp and BCRP; [9]) was 5.92 10^−6 cm/s and the “Papp BL-to-AP” value (P-gp and BCRP; [9]) was 3.00 10^−6 cm/s. The “Papp AP-to-BL” value (P-gp and BCRP; [10]) was 7.11 10^−6 cm/s, the “Papp BL-to-AP” value (P-gp and BCRP; [10]) was 2.14 10^−6 cm/s and the “Plasma Concentration of analyte at 0.50 hr” value [4, 11] was 154 ng/mL and 148 ng/mL and 45.4 ng/mL. For the same substance, the “Plasma Concentration of analyte at 1.0 hr” value [4, 11] was 239 ng/mL and 197 ng/mL and 108 ng/mL, the “Plasma Concentration of analyte at 2.0 hr” value [4, 11] was 313 ng/mL and 186 ng/mL and 76.8 ng/mL and the “Plasma Concentration of analyte at 4.0 hr” value [4, 11] was 199 ng/mL and 153 ng/mL and 71.4 ng/mL. For the same substance, the “Plasma Concentration of analyte at 8.0 hr” value [4, 11] was 338 ng/mL and 211 ng/mL and 68.8 ng/mL, the “Plasma Concentration of analyte at 24 hr” value [4, 11] was 267 ng/mL and 287 ng/mL and 113 ng/mL and the “Plasma Concentration of analyte at […]” value [4, 11] was 201 ng/mL and 121 ng/mL and 69.3 ng/mL. The “Plasma Concentration of analyte at 0.50 hr” value [4, 12] was 116 ng/mL, the “Plasma Concentration of analyte at 1.0 hr” value [4, 12] was 181 ng/mL and the “Plasma Concentration of analyte at 2.0 hr” value [4, 12] was 192 ng/mL. For the same substance, the “Plasma Concentration of analyte at 4.0 hr” value [4, 12] was 141 ng/mL, the “Plasma Concentration of analyte at 8.0 hr” value [4, 12] was 139 ng/mL and the “Plasma Concentration of analyte at 24 hr” value [4, 12] was 222 ng/mL. For the same substance, the “Plasma Concentration of analyte at […]” value [4, 12] was 130 ng/mL, the “Mean endogenous plasma levels” value ([4]; Day 1, no AMX0035, over 24 hours) was 130 to 222 ng/mL and the “Increase of plasma concentration vs Day 1 at each time point” value ([4]; Day 5) was 30-50%. The “Peak (Cmax) plasma value” ([4]; Day 5, AMX0035 840 mg/kg PO) was 298 ng/mL, the “Plasma Concentration of analyte at 0.50 hr” value [4, 13] was 96.1 ng/mL and 225 ng/mL and 183 ng/mL and the “Plasma Concentration of analyte at 1.0 hr” value [4, 13] was 154 ng/mL and 236 ng/mL and 366 ng/mL. The “Plasma Concentration of analyte at 2.0 hr” value [4, 13] was 126 ng/mL and 200 ng/mL and 505 ng/mL, the “Plasma Concentration of analyte at 4.0 hr” value [4, 13] was 123 ng/mL and 176 ng/mL and 255 ng/mL and the “Plasma Concentration of analyte at 8.0 hr” value [4, 13] was 103 ng/mL and 172 ng/mL and 187 ng/mL. The “Plasma Concentration of analyte at 24 hr” value [4, 13] was 130 ng/mL and 216 ng/mL and 178 ng/mL, the “Plasma Concentration of analyte at […]” value [4, 13] was 84.0 ng/mL and 220 ng/mL and 235 ng/mL and the “Plasma Concentration of analyte at 0.50 hr” value [4, 14] was 168 ng/mL. For the same substance, the “Plasma Concentration of analyte at 1.0 hr” value [4, 14] was 252 ng/mL, the “Plasma Concentration of analyte at 2.0 hr” value [4, 14] was 277 ng/mL and the “Plasma Concentration of analyte at 4.0 hr” value [4, 14] was 185 ng/mL. The “Plasma Concentration of analyte at 8.0 hr” value [4, 14] was 154 ng/mL, the “Plasma Concentration of analyte at 24 hr” value [4, 14] was 175 ng/mL and the “Plasma Concentration of analyte at […]” value [4, 14] was 180 ng/mL. For the same substance, the AUC0-24 [4, 15] was 2040 ng·h/mL and 4870 ng·h/mL and 5380 ng·h/mL, the AUClast [4, 15] was 2040 ng·h/mL and 4870 ng·h/mL and 5380 ng·h/mL and the Cmax [4, 15] was 113 ng/mL and 313 ng/mL and 287 ng/mL. For the same substance, the Tlast [4, 15] was 24 h, the Tmax [4, 15] was 24 h and 2.0 h and the AUC0-24 [4, 16] was 409 ng·h/mL. For the same substance, the AUClast [4, 16] was 4090 ng·h/mL, the Cmax [4, 16] was 238 ng/mL and the Tlast [4, 16] was 24 h. The Tmax [4, 16] was 17 h, the AUC0-24 [4, 17] was 2800 ng·h/mL and 4590 ng·h/mL and 5220 ng·h/mL and the AUClast [4, 17] was 2800 ng·h/mL and 4590 ng·h/mL and 5220 ng·h/mL. The Cmax [4, 17] was 154 ng/mL and 236 ng/mL and 505 ng/mL, the Tlast [4, 17] was 24 h and the Tmax [4, 17] was 1.0 h and 2.0 h. It also gave an AUC0-24 [4, 18] of 4200 ng·h/mL, an AUClast [4, 18] of 4200 ng·h/mL and a Cmax [4, 18] of 298 ng/mL. It also gave a Tlast [4, 18] of 24 h and a Tmax [4, 18] of 1.3 h.
